In paper PMC10006169, “A phase I trial of LXS196, a protein kinase C (PKC) inhibitor, for metastatic uveal melanoma” (British Journal of Cancer, 2023):
Like-named read-outs stand apart in the source and are kept apart here.

Test: Plasma pharmacokinetics (LC-MS/MS)
Format: in vivo, human
Settings: human, plasma, oral; for Tmax: read-out: Tmax, Median (Min, max)
Protocol: In the dose escalation part of the study, PK samples were collected at various pre- and post-dose time points on C1D1, D2, D3, D15 and D16. Drug concentrations were assessed using a validated liquid chromatography-tandem mass spectrometry assay.

CC1(N)CCN(c2cccnc2NC(=O)c2nc(-c3ncccc3C(F)(F)F)cnc2N)CC1 [LXS196]
AUC(0-t) (300 mg, C1D1, 300 mg BID, n=17, read-out: AUC0-t, Geo-mean): 18700 ng·h/mL | AUC(0-t) (300 mg, C1D1, 300 mg BID, n=17, read-out: AUC0-t, Mean (SD)): 20500 ng·h/mL | AUC(0-t) (300 mg, C1D1, 300 mg BID, n=17, read-out: AUC0-t, Median (Min, max)): 17000 ng·h/mL | Cmax (300 mg, C1D1, 300 mg BID, n=17, read-out: Cmax, Geo-mean): 3850 ng/mL | Cmax (300 mg, C1D1, 300 mg BID, n=17, read-out: Cmax, Mean (SD)): 4100 ng/mL | Cmax (300 mg, C1D1, 300 mg BID, n=17, read-out: Cmax, Median (Min, max)): 4210 ng/mL | Tmax (300 mg, C1D1, 300 mg BID, n=17): 1 h | AUC(0-t) (300 mg, C1D1, 300 mg QD, n=15, read-out: AUC0-t, Geo-mean): 34000 ng·h/mL | AUC(0-t) (300 mg, C1D1, 300 mg QD, n=15, read-out: AUC0-t, Mean (SD)): 40200 ng·h/mL | AUC(0-t) (300 mg, C1D1, 300 mg QD, n=15, read-out: AUC0-t, Median (Min, max)): 34400 ng·h/mL | AUC(0-inf) (300 mg, C1D1, 300 mg QD, n=15, read-out: AUCinf, Geo-mean): 42100 ng·h/mL | AUC(0-inf) (300 mg, C1D1, 300 mg QD, n=15, read-out: AUCinf, Mean (SD)): 51300 ng·h/mL | AUC(0-inf) (300 mg, C1D1, 300 mg QD, n=15, read-out: AUCinf, Median (Min, max)): 43100 ng·h/mL | Cmax (300 mg, C1D1, 300 mg QD, n=15, read-out: Cmax, Geo-mean): 4940 ng/mL | Cmax (300 mg, C1D1, 300 mg QD, n=15, read-out: Cmax, Mean (SD)): 5580 ng/mL | Cmax (300 mg, C1D1, 300 mg QD, n=15, read-out: Cmax, Median (Min, max)): 5370 ng/mL | half-life (300 mg, C1D1, 300 mg QD, n=15, read-out: T1/2, Geo-mean (converted)): 10.7 h | half-life (300 mg, C1D1, 300 mg QD, n=15, read-out: T1/2, Mean (SD) (converted)): 10.8 h | half-life (300 mg, C1D1, 300 mg QD, n=15, read-out: T1/2, Median (Min, max) (converted)): 11.1 h | Tmax (300 mg, C1D1, 300 mg QD, n=15): 1 h | AUC(0-t) (300 mg, C1D15, 300 mg BID, n=12, read-out: AUC0-t, Geo-mean): 18300 ng·h/mL | AUC(0-t) (300 mg, C1D15, 300 mg BID, n=12, read-out: AUC0-t, Mean (SD)): 19100 ng·h/mL | AUC(0-t) (300 mg, C1D15, 300 mg BID, n=12, read-out: AUC0-t, Median (Min, max)): 17400 ng·h/mL | Cmax (300 mg, C1D15, 300 mg BID, n=17, read-out: Cmax, Geo-mean): 2800 ng/mL | Cmax (300 mg, C1D15, 300 mg BID, n=17, read-out: Cmax, Mean (SD)): 2860 ng/mL | Cmax (300 mg, C1D15, 300 mg BID, n=17, read-out: Cmax, Median (Min, max)): 2880 ng/mL | Tmax (300 mg, C1D15, 300 mg BID, n=17): 0.567 h | AUC(0-t) (300 mg, C1D15, 300 mg QD, n=13, read-out: AUC0-t, Geo-mean): 26500 ng·h/mL | AUC(0-t) (300 mg, C1D15, 300 mg QD, n=13, read-out: AUC0-t, Mean (SD)): 30500 ng·h/mL | AUC(0-t) (300 mg, C1D15, 300 mg QD, n=13, read-out: AUC0-t, Median (Min, max)): 27900 ng·h/mL | Cmax (300 mg, C1D15, 300 mg QD, n=14, read-out: Cmax, Geo-mean): 3500 ng/mL | Cmax (300 mg, C1D15, 300 mg QD, n=14, read-out: Cmax, Mean (SD)): 3860 ng/mL | Cmax (300 mg, C1D15, 300 mg QD, n=14, read-out: Cmax, Median (Min, max)): 3310 ng/mL | concentration at 15 day (300 mg, C1D15, 300 mg QD, n=14, read-out: Cmin, Median (Min, max)): 326 ng/mL | Tmax (300 mg, C1D15, 300 mg QD, n=14): 1 h | AUC(0-t) (400 mg, C1D1, 400 mg BID, n=5, read-out: AUC0-t, Geo-mean): 16800 ng·h/mL | AUC(0-t) (400 mg, C1D1, 400 mg BID, n=5, read-out: AUC0-t, Mean (SD)): 18100 ng·h/mL | AUC(0-t) (400 mg, C1D1, 400 mg BID, n=5, read-out: AUC0-t, Median (Min, max)): 18200 ng·h/mL | AUC(0-inf) (400 mg, C1D1, 400 mg BID, n=5, read-out: AUCinf, Geo-mean): 28400 ng·h/mL | AUC(0-inf) (400 mg, C1D1, 400 mg BID, n=5, read-out: AUCinf, Mean (SD)): 30400 ng·h/mL | AUC(0-inf) (400 mg, C1D1, 400 mg BID, n=5, read-out: AUCinf, Median (Min, max)): 31700 ng·h/mL | Cmax (400 mg, C1D1, 400 mg BID, n=5, read-out: Cmax, Geo-mean): 3730 ng/mL | Cmax (400 mg, C1D1, 400 mg BID, n=5, read-out: Cmax, Mean (SD)): 4350 ng/mL | Cmax (400 mg, C1D1, 400 mg BID, n=5, read-out: Cmax, Median (Min, max)): 3850 ng/mL | half-life (400 mg, C1D1, 400 mg BID, n=5, read-out: T1/2, Geo-mean (converted)): 13.5 h | half-life (400 mg, C1D1, 400 mg BID, n=5, read-out: T1/2, Mean (SD) (converted)): 13.8 h | half-life (400 mg, C1D1, 400 mg BID, n=5, read-out: T1/2, Median (Min, max) (converted)): 14.5 h | Tmax (400 mg, C1D1, 400 mg BID, n=5): 1.03 h | AUC(0-t) (400 mg, C1D15, 400 mg BID, n=4, read-out: AUC0-t, Geo-mean): 15700 ng·h/mL | AUC(0-t) (400 mg, C1D15, 400 mg BID, n=4, read-out: AUC0-t, Mean (SD)): 15900 ng·h/mL | AUC(0-t) (400 mg, C1D15, 400 mg BID, n=4, read-out: AUC0-t, Median (Min, max)): 16000 ng·h/mL | Cmax (400 mg, C1D15, 400 mg BID, n=4, read-out: Cmax, Geo-mean): 2070 ng/mL | Cmax (400 mg, C1D15, 400 mg BID, n=4, read-out: Cmax, Mean (SD)): 2100 ng/mL | Cmax (400 mg, C1D15, 400 mg BID, n=4, read-out: Cmax, Median (Min, max)): 2060 ng/mL | Tmax (400 mg, C1D15, 400 mg BID, n=4): 0.842 h | AUC(0-t) (500 mg, C1D1, 500 mg QD, n=10, read-out: AUC0-t, Geo-mean): 48000 ng·h/mL | AUC(0-t) (500 mg, C1D1, 500 mg QD, n=10, read-out: AUC0-t, Mean (SD)): 50700 ng·h/mL
